Measurements published in patent US4157439A, “Novel nitrosourea derivatives” (priority 1976, dated 1979).
Like-named read-outs stand apart in the source and are kept apart here.

What was measured:
leukemia and tumors = details: background statement on earlier compounds; cited from earlier work
[1] = cited from earlier work
[2] = background statement on earlier compounds; cited from earlier work
Leukemia L 1210 = assay: Anti-leukemic activity on Leukemia L 1210 in mice (survival, percentage increase in life-span); assay type: in vivo, male BDF1 mice; details: for Survival days (mean): untreated control 8.0 days; for Number of survivors (after 60 days): survivors/animals after 60 days
Method: The anti-leukemic activity of some typical nitrosourea derivatives of the formula (I) according to this invention was tested on Leukemia L 1210 in mice, details of which are given below. By way of comparison, Streptozotocin was tested in the same way.
Male BDF1 mice, aging about 6-weeks old and weighing 22±1 g were used in groups of 5 animals each for the tests.
Each animal was inoculated with 10^6 cells of L 1210 intraperitoneally,and the test compound in the form as shown below was administered intraperitoneally from the 24th hour after inoculation once a day for 3 consecutive days. The anti-leukemic activity was assessed by comparing the mean survival days of the treated mice to that of the untreated control, i.e. percentage increase in life-span (ILS) which was calculated as follows:
Percentage increase in life-span (ILS)=(T-C/C)×100
T: The mean survival days of the treated animals
C: The mean survival days of the untreated animals
The compounds No. 1 and No. 3 were used in the form of an aqueous solution in distilled water and the compound No. 2 in the form of an aqueous suspension containing 1% CMC.

[3] = Acute toxicity in the intraperitoneal administration to BDF1 mice; details: mouse, in vivo, ip
Text: It will be appreciated clearly from the tests results of Table 1 that the novel nitrosourea derivatives according to this invention gave a significant increase in life-span in therapeutic treatment of the leukemia in comparison with streptozotocin as a known anti-leukemic nitrosourea. The novel nitrosourea derivatives according to this invention are further characterized by their low toxicity, thus satisfying their practical application for treating leukemia and tumor diseases. For example, acute toxicity in the intraperitoneal administration to BDF1 mice of typical nitrosourea derivatives according to this invention is shown below: […]

[4] = background statement on earlier compounds
[5] = dose 4 mg/kg i.p. once a day for 3 days, 60 days observation
[6] = dose 4 mg/kg i.p. once a day for 3 days
[7] = dose 8 mg/kg i.p. once a day for 3 days, 60 days observation
[8] = dose 8 mg/kg i.p. once a day for 3 days
[9] = dose 1 mg/kg i.p. once a day for 3 days, 60 days observation
[10] = dose 2 mg/kg i.p. once a day for 3 days, 60 days observation

Row | Compound | activity against the leukemia and tumors (leukemia and tumors) | ILS (percentage increase in life-span) (Leukemia L 1210; [5]) | Survival days (mean) (Leukemia L 1210; [5]) | Number of survivors (after 60 days) (Leukemia L 1210; [6]) | ILS (percentage increase in life-span) (Leukemia L 1210; [7]) | Survival days (mean) (Leukemia L 1210; [7]) | Number of survivors (after 60 days) (Leukemia L 1210; [8]) | LD50 [3] | also measured
1 | O=NN(CCCl)C(=O)N[C@@H]1O[C@H](CO)[C@@H](O)[C@H](O)[C@H]1O [1-(2-chloroethyl)-3-(β-D-glucopyranosyl)-1-nitrosourea] | remarkably high inhibitory activity against a variety of leukemia and tumors |  |  |  |  |  |  |  | side effect [1, 4]: low side effect; toxicity [1, 4]: low toxicity; hygroscopicity [2]: somewhat hygroscopic
2 | CC(=O)N[C@@H]1[C@@H](OC(C)=O)[C@H](OC(C)=O)[C@@H](COC(C)=O)O[C@H]1NC(=O)N(CCCl)N=O [compound 1, 1-(2-Chloroethyl)-3-(2-acetamido-3,4,6-tri-O-acetyl-2-deoxy-β-D-glucopyranosyl)-1-nitrosourea] |  | 78.8% | 14.3 days | 0/5 | 105.0% | 16.4 days | 0/5 | 25 mg/kg | 
3 | CC(=O)N[C@@H]1[C@@H](O)[C@H](O)[C@@H](CO)O[C@H]1NC(=O)N(CCCl)N=O [compound 2, 1-(2-Chloroethyl)-3-(2-acetamido-2-deoxy-β-D-glucopyranosyl)-1-nitrosourea] |  | 95.0% | 15.6 days | 0/5 | < 495.0% | < 47.6 days | 3/5 | 20 mg/kg | ILS (percentage increase in life-span) (Leukemia L 1210; [9]): 41.3%; Survival days (mean) (Leukemia L 1210; [9]): 11.3 days; Number of survivors (after 60 days) (Leukemia L 1210; dose 1 mg/kg i.p. once a day for 3 days): 0/5; ILS (percentage increase in life-span) (Leukemia L 1210; [10]): 55.0%; Survival days (mean) (Leukemia L 1210; [10]): 12.4 days; Number of survivors (after 60 days) (Leukemia L 1210; dose 2 mg/kg i.p. once a day for 3 days): 0/5
4 | CN(N=O)C(=O)N[C@H]1C(O)O[C@H](CO)[C@@H](O)[C@@H]1O (stereo partly drawn) [compound 3, N-(N'-methyl-N'-nitroso-carbamoyl)-D-glucosamine, reference compound] | insufficient activity against the leukemia and tumors |  |  |  |  |  |  |  | Survival days (mean) (Leukemia L 1210; dose 50 mg/kg i.p. once a day for 3 days, 60 days observation): 12.1 days; Number of survivors (after 60 days) (Leukemia L 1210; dose 50 mg/kg i.p. once a day for 3 days): 0/5; Survival days (mean) (Leukemia L 1210; dose 100 mg/kg i.p. once a day for 3 days, 60 days observation): 10.6 days; Number of survivors (after 60 days) (Leukemia L 1210; dose 100 mg/kg i.p. once a day for 3 days): 0/5; ILS (percentage increase in life-span) (Leukemia L 1210; ip, 50 mg/kg): 51.3%; ILS (percentage increase in life-span) (Leukemia L 1210; ip, 100 mg/kg): 32.5%; side effect ([1]; in vivo): undesirable side effect
